Assay results reported in paper PMC6214014, “Dendrimeric Poly(Epsilon-Lysine) Delivery Systems for the Enhanced Permeability of Flurbiprofen across the Blood-Brain Barrier in Alzheimer’s Disease” (International Journal of Molecular Sciences, 2018).
Values joined by “and” are separate entries in the source; they are usually repeats but may differ in a detail not shown here. Equal values may be shown once.

How the values were obtained:
[1] = system: in vitro BBB model (bEnd.3 cells); assay: Penetration across the in vitro BBB model (bEnd.3 monolayer on Transwell inserts, HPLC); assay type: in vitro ADME, mouse; settings: bEnd.3 Transwell, n = 6
Method: The lyophilised powders of synthesised molecules (G0K-FP and G1K-FP) as well as free drug (FP) were dissolved in the FBS-free; phenol-free culture media in a concentration of 200 µM. Quantitative analysis of drug and drug-attached dendrons penetration was conducted using HPLC (Agilent technology/1260 infinity, Stockport, UK). The analysis was carried out using a hydrophobic C18 column (150 × 4.6 mm) and a UV-detection wavelength 248 nm which is the λmax of FP [5]. The gradient of eluent of the mobile phase was run from 75:25 to 25:75 of water: acetonitrile over 20 min. The standard curve for each molecule was obtained to calculate the percentage of transported amount across the in vitro BBB model.
To establish an in vitro BBB model, bEnd.3 cells were cultured on microporous membrane (0.4 µm pore size) of 12-Transwell inserts (Fisher Scientific) with complete culture media. TEER values between apical and basolaterl chambers was measured using an Evom voltometer (Sarasota, FL, USA) to determine the day of maximum values indicating tight junction formation. The measurements were taken up to day 8 of culturing and compared to the results of HUVECs which were also cultured into Transwell-clear inserts. Cell-free Transwell inserts were included to exclude the resistance related to the inserts membrane alone. The apical chambers of bEnd.3 culture were then treated with 200 µM of each samples. After 1 and 4 h incubation, 200 µL samples were taken from the basolateral chambers and percentage of permeability calculated according to the following:PMaterial % = ((CAcceptor × VAcceptor)/(CDonor × VDonor)) × 100%(1) where PMaterial %: the percentage of permeability of the tested material, CAcceptor: the concentration of the tested material in basal chamber, VAcceptor: the volume of the culture media in the basal chamber, CDonor: the initial concentration of the tested material in the apical chamber, VDonor: the volume of the culture media in the apical chamber.

[2] = system: γ-secretase enzyme; assay: Quantification of γ-secretase enzyme in C6 glial cells (sandwich ELISA); assay type: cell-based; settings: 200 µM, 4 h incubation, untreated control 28.43 ± 8.32 pg/mL, n = 6
Method: The C6 glial cells seeded in a density of 5 × 10^4 cells per cm^2 and incubated at 37 °C and 5% CO2. The investigation is based on sandwich enzyme-linked immune-sorbent assay (ELISA) technology using γ-secretase enzyme kit (Abbexa Ltd., Cambridge, UK). C6 glial cells were cultured in 24-well plates at density 5 × 10^4 cells per cm^2, and at confluence, they were treated with 200 μM FP, […]-FP, or […]-FP dissolved in […] media. Wells containing untreated C6 cells were also included as a control. After 4 h incubation, cells were washed with PBS and lysed via freezing to -20 °C and thawing to room temperature 3 times. […] The collected samples were used immediately to avoid any degradation and denaturalisation. The standard curve of γ-secretase standards (supplied with kit) was constructed and the concentration of γ-secretase was calculated for each sample.

[3] = parameters: method as in PMID 7736686; settings: cited from earlier work
[4] = parameters: method as in PMID 7736686; settings: cited from earlier work; remark: listed apart in the source
[5] = system: γ-secretase; parameters: method as in PMID 20009055, PMID 18450517; settings: at the target tissue site; cited from earlier work
[6] = system: bEnd.3 cells monolayer; parameters: method as in PMID 24280275; settings: cited from earlier work
[7] = system: brain endothelial cells and Caco-2 cell monolayers; parameters: method as in PMID 23089576; settings: cited from earlier work
[8] = 1 h after applying 200 µM to apical chamber
[9] = 4 h after applying 200 µM to apical chamber

CC(C(=O)NCCCC[C@H](NC(=O)C(C)c1ccc(-c2ccccc2)c(F)c1)C(=O)N[C@@H](Cc1ccccc1)C(=O)O)c1ccc(-c2ccccc2)c(F)c1 (stereo partly drawn) [G0K-FP, Generation 0 lysine dendron-2Flurbiprofen]
% Of Permeability (Mean ± SD) [1, 8]: 5.3% and 5.31 ± 2.73% | % Of Permeability (Mean ± SD) [1, 9]: 12.5% and 12.48 ± 3.42%

CC(C(=O)O)c1ccc(-c2ccccc2)c(F)c1 (stereo not drawn) [FP, Flurbiprofen]
% Of Permeability (Mean ± SD) [1, 8]: 2.71 ± 1.52% | % Of Permeability (Mean ± SD) [1, 9]: 8.50 ± 1.32% | % Of Permeability (Mean ± SD) ([1]; 4 h after applying 200 µM to apical chamber, listed as Free FP): less than 9% | % Of Permeability (Mean ± SD) ([1]; 4 h after applying 200 µM to apical chamber, listed as free drug): not more than 8.5% | γ-Secretase Enzyme Concentration (Mean ± SD) [2]: 8.2 pg/mL and 8.20 ± 3.80 pg/mL | biological half-life [3]: 4 h | time to full excretion from the body [3]: ≤ 24 h | water solubility [4]: poorly water-soluble | required therapeutic concentration for pharmacologically-significant effect on γ-secretase activity [5]: 150–250 µM | diffusion through bEnd.3 cells monolayer [6]: approximately 10%

paclitaxel
fold greater permeability than paclitaxel alone [7]: 12 fold

CC(C(=O)NCCCC[C@H](NC(=O)C(C)c1ccc(-c2ccccc2)c(F)c1)C(=O)NCCCC[C@H](NC(=O)[C@H](CCCCNC(=O)C(C)c1ccc(-c2ccccc2)c(F)c1)NC(=O)C(C)c1ccc(-c2ccccc2)c(F)c1)C(=O)N[C@@H](Cc1ccccc1)C(=O)O)c1ccc(-c2ccccc2)c(F)c1 (stereo partly drawn) [G1K-FP, Generation 1 lysine dendron-4Flurbiprofen]
% Of Permeability (Mean ± SD) [1, 8]: 4.3% and 4.32 ± 1.05% | % Of Permeability (Mean ± SD) [1, 9]: 14.8% and 14.79 ± 2.06%
